BigSolDB 2.1

CC(C)CCC[C@@H](C)[C@H]1CC[C@H]2[C@@H]3CC=C4C[C@@H](O)CC[C@]4(C)[C@H]3CC[C@]12C
solubility (mole fraction)
Conditions | in MIBK | in acetic acid | in anisole | in ethyl acetate | in methanol | in n-heptane
283.2 K | 0.0101 | 0.00053 | 0.0176 | 0.00593 | 0.00021 | 0.00198
293.2 K | 0.0142 | 0.0012 | 0.0205 | 0.00952 | 0.00042 | 0.00372
303.2 K | 0.0272 | 0.00143 | 0.024 | 0.0146 | 0.00073 | 0.00609
313.2 K | 0.036 | 0.00255 | 0.0325 | 0.0209 | 0.00105 | 0.00863
323.2 K | 0.0483 | 0.00382 | 0.0442 | 0.033 | 0.00127 | 0.0152
